Data reported in patent US20220378816A1, “2-BENZYLIDENE HYDRAZINOADENOSINE COMPOUNDS HAVING A2A ADENOSINE RECEPTOR AGONISTIC ACTIVITY” (ACADEMY OF MILITARY MEDICAL SCIENCES, priority 2019, published 2022).
Read-outs that look alike come from different tables or passages of the source.

Key:
[1] = target: human adenosine receptor A2A (Homo sapiens, UniProt P29274); test: Adenosine receptor A2A cAMP test (LANCE Ultra cAMP, hADORA2A-HEK293 cells); assay type: cell-based; details: for hA2AAR agonist function: cAMP test; for EC50: stimulating production of cyclic AMP, hADORA2A-HEK293 cells
Sequence of human adenosine receptor A2A (P29274 whole entry): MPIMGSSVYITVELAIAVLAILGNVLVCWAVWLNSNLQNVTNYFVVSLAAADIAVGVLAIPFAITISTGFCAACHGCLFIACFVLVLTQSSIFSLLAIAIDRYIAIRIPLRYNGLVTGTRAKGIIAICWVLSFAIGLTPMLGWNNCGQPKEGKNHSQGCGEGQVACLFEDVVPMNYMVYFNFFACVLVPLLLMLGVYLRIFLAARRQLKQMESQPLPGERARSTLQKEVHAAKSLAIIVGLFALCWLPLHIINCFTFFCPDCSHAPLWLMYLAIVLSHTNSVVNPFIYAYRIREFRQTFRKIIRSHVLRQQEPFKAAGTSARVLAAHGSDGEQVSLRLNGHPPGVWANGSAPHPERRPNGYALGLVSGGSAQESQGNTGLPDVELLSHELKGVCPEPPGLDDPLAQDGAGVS
From the text: Experimental reagents and consumables: DMEM/F12, G418, Penicillin-Streptomycin, Versene Solution, HEPES, Hank's Buffered Saline Solution, PBS (pH 7.4, 1×, sterile), FBS, BSA Stabilizer 7.5%, Rolipram, NECA were separately purchased from Gibico, Hyclone and Sigma. LANCE® Ultra cAMP kit (Eu-cAMP tracer, Ulight-anti-cAMP reagent, cAMP detection buffer) and hADORA2A-HEK293 cells were purchased from PerkinElmer Research Products (Boston, Mass.). All other reagents were of analytical grade and obtained from commercial sources. 384-well polypropylene microplate and 384-well solid white plate were purchased from Labcyte and Corning, respectively.
The cells stably expressing human adenosine receptor A2A (hADORA2A-HEK293 cells) were cultured in DMEM/F12 medium containing 10% FBS, 1×Penicillin-Streptomycin and 400 μg/ml G418 in a 37° C. and 5% CO2 environment. Before the experiment, the cells were digested with Versene solution, and the cells were collected by centrifugation at 200 g and room temperature for 5 minutes, and finally resuspended with assay buffer (Hank's buffered saline solution, containing 5 mM HEPES, 0.1% BSA stabilizer and 10 μM Rolipram, pH 7.4). The TECAN automated liquid handling workstation was used to dilute the compound in a 384-well polypropylene microplate with DMSO to 11 concentration points in a 3-fold gradient to prepare the compound source plate, in which the 11 concentration points of the compound were 10 mM, 3.33 mM, 1.11 mM., 0.3 7mM, 0.1 2 mM, 0.041 mM, 0.013 mM, 4.57×10^−3 mM, 1.52×10^−3 mM, 5×10^−4 mM and 1.7×10^−4 mM. The Echo Acoustic Liquid Handler (Labcyte) was used to transfer the test compound from the compound source plate to an assay plate, in which the transfer volume of the compound was 10 nl/well. The hADORA2A-HEK293 cell suspension was diluted with assay buffer to 30,000 cells/ml, and the cell suspension was transferred to the assay plate at a volume of 10 μl/well (300 cells/well). The assay plate was centrifuged at 150 g for 1 minute and pre-incubated at room temperature for 30 minutes. The Eu-cAMP tracer working solution (Eu-cAMP tracer 40 μl, cAMP detection buffer 1.96 ml) (5 μl/well) was added to the assay plate, and then the Ulight-anti-cAMP working solution (13 μl of Ulight-anti-cAMP reagent and 1.95 ml of cAMP detection buffer) (5 µl/well) was added to the assay plate. The assay plate was rotated at 150 g for 30 seconds and incubated at room temperature for 30 minutes. The EnVision multimode plate reader (PerkinElmer) was used determine the level of cyclic adenosine monophosphate in the final solution (λex=320 nm, λem=665 nm & 615 nm). The EC50 (nM) value of the compound interacting with the A2A adenosine receptor to stimulate the production of cyclic adenosine monophosphate was calculated and the A2A receptor agonist titer of the compound was expressed as the EC50 (nM) value.

[2] = target: T1, (human) A2A adenosine receptors (Homo sapiens, UniProt P29274); test: Radioligand binding test ([3H]CGS21680 displacement, hA2A HEK-293 cell membranes); details: for Ki: read-out: Ki (inhibition constant)
T1 construct: purchased PerkinElmer Research Products (Boston, Mass.); host or cells: HEK-293
T1 sequence (P29274 whole entry): as above
Procedure: Cell membranes stably transfected with (human) A2A adenosine receptors were prepared in HEK-293 cells. The cell membranes were obtained from PerkinElmer Research Products (Boston, Mass.).
The A2A adenosine receptors used were all expressed in the cell membranes. […] (final 25 nM) was added to the diluted cell membrane, and mixed well. 50 μL of the prepared dilution solution of cell membrane was transferred to the 384-well Opti-plate containing compound and incubated at 25° C. for 90 minutes. 100 μL of 0.5% Polyethyleneimine solution (PEI) was added to […]-96 GF/B filter plate, and soaked for 90 minutes at 4° C., then 500 μL of washing buffer/well (50 mM Tris-HCl pH 7.4, 154 mM NaCl) was transferred with Cell Harvester to wash the […]-96 GF/B filter plate twice. The mixed system in the Opti-plate was transferred to the washed […]-96 GF/B filter plate, 500 μL of washing buffer/well (50 mM Tris-HCl pH 7.4, 154 mM NaCl) was used to wash the […]-96 GF/B filter plate 9 times. Incubation was performed in 37° C. incubator for 3 minutes. 40 μL of ULTIMA GOLD scintillation solution (Perkin Elmer, Cat #77-16061) was added to each well, CPM (count per minute) value was read by a MicroBeta liquid scintillation counter (PerkinElmer).

[3] = tested on: blood-brain barrier; test: Animal experiment of blood-brain barrier disruption (FITC-Dextran in brain of SD rats); assay type: in vivo
Procedure: Fluorescein-labeled dextran FITC-Dextran (CAS: 60842-46-8) with molecular weight of 10,000 MW was purchased from TCI (Shanghai) Development Co., Ltd.; PBS solution and experimental animal SD rats were obtained from commercial sources.
FITC-Dextran solutions with six concentration gradients ([…], 10 μg/ml) were prepared with PBS, and standard curve of FITC-Dextran concentration was made by using microplate reader (λex=490 nm, λem=520 nm). Additionally, 10 mg/ml FITC-Dextran solution was prepared, Compound 5 was added to PBS solution to prepare 1 mg/ml solution. 1 ml of 10 mg/ml FITC-Dextran solution and 1 ml of 1 mg/ml Compound 5 in PBS solution were taken and mixed to prepare administration solvent. 1 ml of 10mg/ml FITC-Dextran solution and 1 ml of PBS solution were taken and mixed to prepare blank control solution. 6 SD rats were injected with 2 ml of the administration solvent via tail vein, respectively, while another 6 SD rats were injected with 2 ml of the blank control solution via tail vein. […] The solution to be tested was subjected to fluorescence detection by using the microplate reader (λex=490 nm, λem=520 nm).
The measured fluorescence value by the microplate reader was converted into the corresponding FITC-Dextran average concentration according to the obtained standard curve of FITC-Dextran concentration.

[4] = calculated from IC50 by Cheng and Prusoff equation, [S] 25 nM, Km […] nM

hA2AAR agonist function [1] | EC50 [1] | IC50 [2] | Ki [2, 4] | melting point | Ki [2] | SMILES | opening of the blood-brain barrier ([3]; FITC-Dextran co-injected) | FITC-Dextran concentration in brain ([3]; tail vein injection with FITC-Dextran (10,000 MW), brain taken after 30 minutes, average)
shown as hA2AAR agonists | 0.64 nM | 3.9 nM | 1.8 nM | 220 °C |  | Nc1nc(N/N=C/c2ccc(OCc3ccccc3)c(OCc3ccccc3)c2)nc2c1ncn2[C@@H]1O[C@H](CO)[C@@H](O)[C@H]1O [Compound 2, (2R,3R,4S,5R)-2-{6-amino-2-{2-[(E)-3,4-bis(benzyloxy)benzylidene]hydrazino}-9H-purin-9-yl}-5-(hydroxymethyl)tetrahydrofuran-3,4-diol] |  | 
shown as hA2AAR agonists | 4.1 nM | 11.7 nM | 5.5 nM | 144 °C |  | Nc1nc(N/N=C/c2ccc(OCc3ccc(F)cc3)cc2)nc2c1ncn2[C@@H]1O[C@H](CO)[C@@H](O)[C@H]1O [Compound 5, (2R,3R,4S,5R)-2-{6-amino-2-{2-{(E)-4-[(4-fluorobenzyl)oxy]benzylidene}hydrazino}-9H-purin-9-yl}-5-(hydroxymethyl)tetrahydrofuran-3,4-diol] | could open the blood-brain barrier | 0.11 µg/mL
shown as hA2AAR agonists |  |  |  | 234 °C |  | Nc1nc(N/N=C/c2ccc(-c3ccccc3)cc2)nc2c1ncn2[C@@H]1O[C@H](CO)C(O)C1O (some centres unmarked) [Compound 9] |  | 
shown as hA2AAR agonists | 17.9 nM | 13.7 nM |  | 164 °C | 6.4 nM | CCN(CC)c1ccc(/C=N/Nc2nc(N)c3ncn([C@@H]4O[C@H](CO)[C@@H](O)[C@H]4O)c3n2)cc1 [Compound 15, (2R,3R,4S,5R)-2-{6-amino-2-{2-[(E)-4-(diethylamino)benzylidene]hydrazino}-9H-purin-9-yl}-5-(hydroxymethyl)tetrahydrofuran-3,4-diol] |  | 
 | 15.3 nM | 18.1 nM |  | 276 °C | 8.5 nM | N#Cc1ccc(/C=N/Nc2nc(N)c3ncn([C@@H]4O[C@H](CO)C(O)C4O)c3n2)cc1 (some centres unmarked) [Compound 20] |  | 
